{
  "source": "paper PMC4710522",
  "about": "“A Novel Triazolopyridine-Based Spleen Tyrosine Kinase Inhibitor That Arrests Joint Inflammation” (PLoS ONE, 2016)",
  "key": {"[1]": {"system": "rat collagen-induced arthritis model", "test": "rat collagen-induced arthritis (CIA) model, paw swelling", "format": "in vivo", "details": "Indomethacin 2 mg/kg oral, p<0.01", "experimental": "Female Lewis rats (150 – 170g; Charles River Laboratories) were house standard shoebox cages, fed Harlan-Tekald diet and water ad libitum and maintained on a 12h light/dark cycle. For induction of arthritis rats were anesthetized with isofluorane and their entire dorsal area shaved. Rats were injected (intradermal) with 100 μl of equal volumes of collagen (Chrondrex, Redmond, WA) and IFA (Sigma Chemicals, St. Louis, MO) emulsion in 10 sites across the dorsal region. At disease onset 11 days following immunization animals were randomized into groups based on their ankle measurements and test article administration was initiated. Rats were dosed orally with vehicle (20% Captisol®), Indomethacin (Sigma Chemicals, St. Louis, MO, 2mg/kg) or CC-509 (15, 25mg/kg QD or 15mg/kg BID) in a dose volume of 5ml/kg. […] On the last day of the study animals were split into 2 cohorts and bleed twice via tail bleed under isofluorane anesthesia and a third terminal bleed following CO2 asphyxiation to obtain a time course of plasma compound exposure at 30minutes, 1, 2, 4, 8 and 24h after the last dose of CC-509.\nFor the TEL-Syk assay, the intensity values for the 700 and 800 channel were exported as text files in ActivityBase (IDBS, Guildford, UK) to derive the ratios that reflect kinase activity. For LAD2 experiments, enzyme activity values were exported as text files into ActivityBase to calculate “percent release” according to the formula: 100* supernatant OD405/ (supernatant OD405 + (pellet OD405*pellet dilution factor)). For the basophil and B-cells assays, flow cytometry data was exported from the FACS Array and processed using FloJo software package (TreeStar, Inc., Ashland, Oregon). For the JAK2 HEL and Ramos NFAT β-lactamase assays, the fluorescence values obtained at 460 nm and 530 nm were exported into ActivityBase to calculate response ratios. For the neutrophil, macrophage, KDR, and JAK1/3 assays, raw values were exported into ActivityBase to calculate percent inhibition. All IC50 calculations were generated using XLfit (IDBS, Guildford, UK) algorithm 205 within Excel. For PCA, the OD from the saline injected site was subtracted from the OD from the anti-DNP IgE injected site. Evans blue dye extravasation was expressed as mean ± SEM and % inhibition for the test article groups was normalized to the cromolyn positive control. For the CIA model paw measurements (left and right ankle diameter) were taken for each individual animal and averaged. The mean data from each group was plotted and either the AUC(day 11–18) or % inhibition on day 18 was calculated. Data is expressed as mean ± SEM of each group with n = 6–12. Statistical analysis was performed with Prism Graphpad using one-way ANOVA followed by Dunnett’s comparison using the vehicle group as the control or for measurements over time a 2 way ANOVA followed by a Dunnett’s multiple comparison test. Statistical significance was deemed as * = p<0.05, **p<0.01, ***p<0.001 and p<0.0001."}, "[2]": {"system": "proinflammatory analytes in paw tissue", "test": "inflammatory cytokines measured in the paw, rat CIA", "format": "in vivo", "details": "day 18; CC-509 all dose levels p<0.01; indomethacin p<0.05", "experimental": "Following the last administration of CC-509, paw samples were collected and processed for cytokine and chemokine analysis (Aushon Biosciences, Billerica, MA). Briefly paws were snap-frozen and pulverized in liquid nitrogen followed by addition of cell signal lysis buffer in the presence of protease and phosphatase inhibitors (Sigma Chemicals, St. Louis, MO). Samples were homogenized on high speed for 30 seconds, incubated on ice for 20 minutes then sonicated at high intensity for 1 minute. Samples were spun at high speed and supernatants were collected for cytokine analysis."}, "[3]": {"set-up": "method as in PMID 19096013", "details": "chronic and refractory ITP; cited from earlier work"}, "[4]": {"system": "rat passive cutaneous anaphylaxis model", "test": "rat passive cutaneous anaphylaxis (PCA) model", "format": "in vivo", "details": "positive control cromolyn 100 mg/kg IV, p<0.001", "experimental": "On day 0, male CD-IGS rats (170 – 190g; Charles River Laboratories) were anesthetized with isofluorane, their dorsal region shaved and 50 μl Anti-DNP-IgE (Clone SPE-7, Sigma, St. Louis, MO) that had been diluted 1:1000 in saline was injected via the intradermal route at 3 individual spots along the right side of the back. Saline was injected via the intradermal route at 3 individual spots along the left side of the back as a sham control. Twenty-four hours later, 200 μl of BSA-DNP (Calbiochem, San Diego, CA), prepared (1 mg prepared in a 2% solution of Evans blue dye: Sigma Chemicals, St. Louis, MO) was injected via the IV route via the tail vein. Thirty minutes after the BSA-DNP challenge the experiment was terminated and skin samples from the middle of each injection site taken for Evans blue dye measurement at an OD measurement at 620nm on a plate reader following incubation (2h at 90°C) and homogenization in formamide (Sigma Chemicals, St. Louis, MO). Vehicle (20% Captisol® (Captisol), PO), the positive control (Cromolyn: Sigma Chemicals, St. Louis, MO 100mg/kg, 2mL/kg, IV) or CC0484509 (3 and 10mg/kg, PO) were dosed 1h prior to the IV challenge with BSA-DNP.\nFor the TEL-Syk assay, the intensity values for the 700 and 800 channel were exported as text files in ActivityBase (IDBS, Guildford, UK) to derive the ratios that reflect kinase activity. For LAD2 experiments, enzyme activity values were exported as text files into ActivityBase to calculate “percent release” according to the formula: 100* supernatant OD405/ (supernatant OD405 + (pellet OD405*pellet dilution factor)). For the basophil and B-cells assays, flow cytometry data was exported from the FACS Array and processed using FloJo software package (TreeStar, Inc., Ashland, Oregon). For the JAK2 HEL and Ramos NFAT β-lactamase assays, the fluorescence values obtained at 460 nm and 530 nm were exported into ActivityBase to calculate response ratios. For the neutrophil, macrophage, KDR, and JAK1/3 assays, raw values were exported into ActivityBase to calculate percent inhibition. All IC50 calculations were generated using XLfit (IDBS, Guildford, UK) algorithm 205 within Excel. For PCA, the OD from the saline injected site was subtracted from the OD from the anti-DNP IgE injected site. Evans blue dye extravasation was expressed as mean ± SEM and % inhibition for the test article groups was normalized to the cromolyn positive control. For the CIA model paw measurements (left and right ankle diameter) were taken for each individual animal and averaged. The mean data from each group was plotted and either the AUC(day 11–18) or % inhibition on day 18 was calculated. Data is expressed as mean ± SEM of each group with n = 6–12. […]"}, "[5]": {"system": "Tel-Syk expressing BaF3 cells", "test": "Tel-Syk BaF3 viability assay (growth factor-independent growth)", "format": "cell-based, murine", "details": "Tel-Syk BaF3, absence of IL-3", "experimental": "HEK293 T-REx™ (Life Technologies, Grand Island, NY) stably transfected with human TEL-Syk (cloned as described prior section DNA constructs) were plated on black poly-D-lysine coated 96-well plates (BD Biosciences, San Diego, CA) in culture media containing tetracycline-free fetal bovine serum (Clontech, MountainView, CA) for 16 hours in a tissue culture incubator. Tel-Syk expression was induced for 6 hours in fresh growth media containing 1 μg/ml tetracycline (Sigma Chemicals, St. Louis, MO). Plates were preincubated with CC-509 for 90 minutes, fixed immediately with 4% formaldehyde in 1X PBS for 20 min at room temperature, and washed/permeabilized 5-times with PBS containing 0.1% Triton X-100. Plates were blocked with Odyssey Blocking Buffer for 90 minutes at room temperature and incubated overnight at 4°C on a rotating platform with rabbit phospho-Syk (1:1000) and mouse V5 (1:2500) primary antibodies diluted in Odyssey Blocking Buffer. […] Viability of BaF/3 cells expressing Tel-Syk grown in the absence of murine IL-3 was measured using Cell-Titer Glo reagent (Promega, Madison, WI), as described by supplier."}},
  "data": [
    {"smiles": "COc1ccc2c(c1)c(CC(=O)O)c(C)n2C(=O)c1ccc(Cl)cc1", "note": "[indomethacin, reference compound]", "values": [
      {"measurement": "inhibition of paw swelling", "setting": "[1]", "result": 82, "unit": "%"},
      {"measurement": "MIP-1α in the paw", "setting": "[2]", "result": "significantly inhibited"}
    ]},
    {"smiles": "COc1cc(Nc2ncc(F)c(Nc3ccc4c(n3)N(COP(=O)(O)O)C(=O)C(C)(C)O4)n2)cc(OC)c1OC", "note": "[fostamatinib]", "values": [
      {"measurement": "patients with durable platelet responses", "setting": "[3]", "result": "8/16"}
    ]},
    {"smiles": "O=C(O)c1cc(=O)c2c(OCC(O)COc3cccc4oc(C(=O)O)cc(=O)c34)cccc2o1", "note": "[cromolyn, reference compound]", "values": [
      {"measurement": "inhibition of skin edema compared to vehicle control group", "setting": "[4]", "result": 79, "unit": "%"}
    ]},
    {"smiles": "NCCNc1ncc(C(N)=O)c(Nc2cccc(C(F)(F)F)c2)n1", "note": "[Syk II inhibitor, reference compound]", "values": [
      {"measurement": "IC50", "setting": "[5]", "result": "2240 ± 290", "unit": "nM"}
    ]}
  ]
}
